Measured values published in patent US20250241891A1, “TREATMENT OF ANXIETY” (GH RESEARCH IRELAND LIMITED, priority 2022, published 2025).

Tested on: patients with postpartum depression (PPD)
Test: Clinical trial of inhaled 5-MeO-DMT in postpartum depression (MADRS, BPRS, BIMF, PES, safety)
Experimental: The single-arm, open-label clinical trial will involve 15 adult female patients with clinically diagnosed postpartum depression (PPD).
The second dose (12 mg) will only be administered if: • a. […] The 6 mg dose was safe and well-tolerated according to the investigator, • c. Any psychoactive effects (PsE) of the prior dose have subsided, and • d. Pre-dose vital parameters and forced expiratory volume in one second (FEV1) are in normal range, or if outside of the normal range, are not clinically significant according to the investigator. • 3. Similarly, a third dose (18 mg) will only be administered if: • a. […] The 12 mg dose was safe and well-tolerated according to the investigator, and • c. Any PsE of the prior dose have subsided, and • d. Pre-dose vital parameters and forced expiratory volume in one second (FEV1) are in normal range, or if outside of the normal range, are not clinically significant according to the investigator.
The patients will be assessed for a peak psychedelic experience (based on a patient-scored visual analogue scale, the PE scale), sedation, and other endpoints after dosing. Follow-up visits are planned for Day 1, and Day 7 after the dosing day.
The following criteria must be met by all patients considered for clinical trial participation: • 1. Is female and in the age range between 18 and 45 years (inclusive) at screening. • 2. Has a body mass index (BMI) in the range of 18.5 and 35 kg/m^2 (inclusive) at screening. • 3. Meets the trial criteria for PPD as assessed by a trial psychiatrist or registered psychologist: • a. Diagnosis of Major Depressive Disorder without psychotic features, confirmed by the Mini-International Neuropsychiatric Interview (MINI), with peri-partum onset that began no earlier than gestation and no later than the first 4 weeks postpartum. • b. Has a Montgomery-Åsberg Depression Rating Scale (MADRS) total score of equal to or greater than 28 at screening and pre-dose on Day 0. • 6. […] Patients must have a negative pregnancy test at screening and on the pre-test day (Day −1). • 5. Is willing to delay start of other antidepressant or anxiety medication until after the end of the trial at Day 7 and agrees to keep any psychotherapy unchanged during the trial.
A potential patient who meets any of the following key exclusion criteria will be excluded from participation in this trial: • 1. Has, based on history, psychiatric assessment, and evaluation of the MINI, a current or prior diagnosis of bipolar disorder, a manic or hypomanic episode, a psychotic disorder, Major Depressive Disorder (MDD) or other mood disorder with psychotic features, obsessive compulsive disorder, post-traumatic stress disorder (PTSD), autism spectrum disorder, borderline personality disorder, schizophrenia, delusional disorder, paranoid personality disorder, schizoaffective disorder, clinically significant intellectual disability, or any other psychiatric comorbidity that renders the patient unsuitable for the trial according to the investigator's judgment. • 2. Has one or more first or second degree relatives with a current or previously diagnosed bipolar disorder, psychotic disorder or other mood disorder (including MDD) with psychotic features. • 3. Is in the judgement of a trial psychiatrist or registered psychologist, at significant risk for suicide based on history, psychiatric assessment, and evaluation of suicidal ideation and suicidal behaviour based on the Columbia-Suicide Severity Rating Scale (C-SSRS). • 4. Has taken anti-depressive medication within 14 days or 5 half-lives (whichever is longer) prior to dosing (exception: within the last 5 weeks in the case of fluoxetine). • 5.

[1] = PPD n=1, IDR 6+12 mg inhaled, day 1, baseline 5
[2] = PPD n=1, IDR 6+12 mg inhaled, day 1, baseline 6
[3] = PPD n=1, IDR 6+12 mg inhaled, day 1, baseline 7
[4] = PPD n=1, IDR 6+12 mg inhaled, day 7, baseline 0
[5] = PPD n=1, IDR 6+12 mg inhaled, day 7, baseline 1
[6] = PPD n=1, IDR 6+12 mg inhaled, day 7, baseline 2
[7] = PPD n=1, IDR 6+12 mg inhaled, day 7, baseline 3
[8] = PPD n=1, IDR 6+12 mg inhaled, day 7, baseline 4
[9] = PPD n=1, IDR 6+12 mg inhaled, day 7, baseline 5
[10] = PPD n=1, IDR 6+12 mg inhaled, day 7, baseline 6
[11] = PPD n=1, IDR 6+12 mg inhaled, day 7, baseline 7
[12] = PPD n=1, IDR 6+12 mg inhaled, discharge, baseline 1
[13] = PPD n=1, IDR 6+12 mg inhaled, discharge, baseline 2
[14] = PPD n=1, IDR 6+12 mg inhaled, discharge, baseline 5
[15] = PPD n=1, IDR 6+12 mg inhaled, discharge, baseline 6
[16] = PPD n=1, IDR 6+12 mg inhaled, discharge, baseline 7

SMILES: COc1ccc2[nH]cc(CCN(C)C)c2c1 [5-MeO-DMT]
- MADRS Reduced Sleep improvement [1]: 5
- MADRS Reduced Sleep score [1]: 0
- BPRS Depressive Mood improvement [2]: 5
- BPRS Depressive Mood score [2]: 1
- BPRS Guilt Feelings score [2]: 1
- BPRS Guilt feelings improvement [2]: 5
- BPRS Somatic Concern improvement [2]: 5
- BPRS Somatic Concern score [2]: 1
- BPRS Tension improvement [2]: 5
- BPRS Tension score [2]: 1
- BPRS Anxiety improvement [3]: 6
- BPRS Anxiety score [3]: 1
- MADRS Concentration Difficulties improvement [4]: 0
- MADRS Concentration Difficulties score [4]: 0
- MADRS Reduced appetite improvement [4]: 0
- MADRS Reduced appetite score [4]: 0
- MADRS Suicidal Thoughts improvement [4]: 0
- MADRS Suicidal Thoughts score [4]: 0
- BPRS Blunted Affect score [5]: 1
- BPRS Blunted affect improvement [5]: 0
- BPRS Conceptual disorganization improvement [5]: 0
- BPRS Conceptual disorganization score [5]: 1
- BPRS Disorientation improvement [5]: 0
- BPRS Disorientation score [5]: 1
- BPRS Grandiosity improvement [5]: 0
- BPRS Grandiosity score [5]: 1
- BPRS Hallucinatory behaviour improvement [5]: 0
- BPRS Hallucinatory behaviour score [5]: 1
- BPRS Hostility improvement [5]: 0
- BPRS Hostility score [5]: 1
- BPRS Mannerisms and Posturing improvement [5]: 0
- BPRS Mannerisms and Posturing score [5]: 1
- BPRS Motor retardation improvement [5]: 0
- BPRS Motor retardation score [5]: 1
- BPRS Suspiciousness improvement [5]: 0
- BPRS Suspiciousness score [5]: 1
- BPRS Uncooperativeness improvement [5]: 0
- BPRS Uncooperativeness score [5]: 1
- BPRS Unusual Thought Content improvement [5]: 0
- BPRS Unusual Thought Content score [5]: 1
- BPRS Excitement improvement [6]: 1
- BPRS Excitement score [6]: 1
- MADRS Inability to Feel improvement [7]: 3
- MADRS Inability to Feel score [7]: 0
- MADRS Lassitude improvement [7]: 3
- MADRS Lassitude score [7]: 0
- MADRS Pessimistic Thoughts improvement [8]: 4
- MADRS Pessimistic Thoughts score [8]: 0
- MADRS Reported sadness improvement [8]: 4
- MADRS Reported sadness score [8]: 0
- BPRS Emotional Withdrawal score [9]: 1
- BPRS Emotional withdrawal improvement [9]: 4
- MADRS Apparent sadness improvement [9]: 5
- MADRS Apparent sadness score [9]: 0
- MADRS Inner Tension improvement [9]: 4
- MADRS Inner Tension score [9]: 1
- MADRS Reduced Sleep improvement [9]: 5
- MADRS Reduced Sleep score [9]: 0
- BPRS Depressive Mood improvement [10]: 5
- BPRS Depressive Mood score [10]: 1
- BPRS Guilt Feelings score [10]: 1
- BPRS Guilt feelings improvement [10]: 5
- BPRS Somatic Concern improvement [10]: 5
- BPRS Somatic Concern score [10]: 1
- BPRS Tension improvement [10]: 5
- BPRS Tension score [10]: 1
- BPRS Anxiety improvement [11]: 6
- BPRS Anxiety score [11]: 1
- BPRS Blunted Affect score [12]: 1
- BPRS Blunted affect improvement [12]: 0
- BPRS Conceptual disorganization improvement [12]: 0
- BPRS Conceptual disorganization score [12]: 1
- BPRS Disorientation improvement [12]: 0
- BPRS Disorientation score [12]: 1
- BPRS Grandiosity improvement [12]: 0
- BPRS Grandiosity score [12]: 1
- BPRS Hallucinatory behaviour improvement [12]: 0
- BPRS Hallucinatory behaviour score [12]: 1
- BPRS Hostility improvement [12]: 0
- BPRS Hostility score [12]: 1
- BPRS Mannerisms and Posturing improvement [12]: 0
- BPRS Mannerisms and Posturing score [12]: 1
- BPRS Motor retardation improvement [12]: 0
- BPRS Motor retardation score [12]: 1
- BPRS Suspiciousness improvement [12]: 0
- BPRS Suspiciousness score [12]: 1
- BPRS Uncooperativeness improvement [12]: 0
- BPRS Uncooperativeness score [12]: 1
- BPRS Unusual Thought Content improvement [12]: 0
- BPRS Unusual Thought Content score [12]: 1
- BPRS Excitement improvement [13]: 1
- BPRS Excitement score [13]: 1
- BPRS Emotional Withdrawal score [14]: 1
- BPRS Emotional withdrawal improvement [14]: 4
- BPRS Depressive Mood improvement [15]: 5
- BPRS Depressive Mood score [15]: 1
- BPRS Guilt Feelings score [15]: 1
- BPRS Guilt feelings improvement [15]: 5
- BPRS Somatic Concern improvement [15]: 5
- BPRS Somatic Concern score [15]: 1
- BPRS Tension score [15]: 1
- BPRS Anxiety improvement [16]: 6
- BPRS Anxiety score [16]: 1
- ECG, safety laboratory analyses and CADSS assessments (PPD n=1, ECG 3 hours, laboratory 7 days, CADSS 3 hours, 1 day and 7 days): unremarkable
